Experimental data taken from ChEMBL document CHEMBL3217600, “The discovery and profile of PF-0868087, a CNS-sparing histamine H3 receptor antagonist for the treatment of allergic rhinitis” (Medchemcomm, 2012).
One block for each compound: values may come before it.

Legend:
[1] = AUC in dog at 0.2 mg/kg, iv infusion; format: ADME, organism-based, Canis lupus familiaris; set-up: dose 0.2 mg/kg, route intravenous; details: plasma
[2] = Binding affinity to sigma receptor (unknown origin); set-up: species or system Homo sapiens
[3] = Clearance in dog at 0.2 mg/kg, iv infusion; format: ADME, organism-based, Canis lupus familiaris; set-up: dose 0.2 mg/kg, route intravenous; details: in vivo
Histamine H3 receptor [4] = biological target: T1, Histamine H3 receptor (Homo sapiens, UniProt Q9Y5N1); assay: Inhibition of human recombinant histamine H3 receptor expressed in HEK293 cells assessed as inhibition of imetit-induced reduction in NKH477-stimulated cAMP accumulation by DiscoveRxTM assay; format: functional, cell-based
T1 sequence (Q9Y5N1 whole entry): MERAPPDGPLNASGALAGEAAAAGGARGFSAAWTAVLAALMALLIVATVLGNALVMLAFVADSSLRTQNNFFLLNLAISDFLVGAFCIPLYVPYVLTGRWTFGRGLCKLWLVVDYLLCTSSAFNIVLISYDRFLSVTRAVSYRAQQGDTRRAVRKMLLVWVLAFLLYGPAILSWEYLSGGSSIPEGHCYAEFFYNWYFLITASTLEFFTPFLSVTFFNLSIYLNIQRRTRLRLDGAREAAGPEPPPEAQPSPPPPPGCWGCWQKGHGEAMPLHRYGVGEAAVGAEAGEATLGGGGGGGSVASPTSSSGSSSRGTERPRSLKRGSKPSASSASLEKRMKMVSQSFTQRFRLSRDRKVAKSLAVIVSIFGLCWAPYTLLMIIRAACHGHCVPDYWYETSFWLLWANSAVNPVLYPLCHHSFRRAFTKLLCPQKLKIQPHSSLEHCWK

[5] = Drug absorption in rat at 2 mg/kg, po; format: ADME, organism-based; set-up: dose 2 mg/kg, route oral; details: in vivo, read-out: Drug absorption
[6] = Ratio of free drug level in brain to plasma in iv dosed rat measured after 6 hrs infusion; format: ADME, organism-based; details: read-out: K(p,uu,brain)
Histamine H3 receptor [7] = biological target: T2, Histamine H3 receptor (Rattus norvegicus, UniProt Q9QYN8); assay: Displacement of [3H]-N-alpha-methylhistamine from rat recombinant histamine H3 receptor expressed in HEK293 cell membrane; format: cell membranes
T2 sequence (Q9QYN8 whole entry): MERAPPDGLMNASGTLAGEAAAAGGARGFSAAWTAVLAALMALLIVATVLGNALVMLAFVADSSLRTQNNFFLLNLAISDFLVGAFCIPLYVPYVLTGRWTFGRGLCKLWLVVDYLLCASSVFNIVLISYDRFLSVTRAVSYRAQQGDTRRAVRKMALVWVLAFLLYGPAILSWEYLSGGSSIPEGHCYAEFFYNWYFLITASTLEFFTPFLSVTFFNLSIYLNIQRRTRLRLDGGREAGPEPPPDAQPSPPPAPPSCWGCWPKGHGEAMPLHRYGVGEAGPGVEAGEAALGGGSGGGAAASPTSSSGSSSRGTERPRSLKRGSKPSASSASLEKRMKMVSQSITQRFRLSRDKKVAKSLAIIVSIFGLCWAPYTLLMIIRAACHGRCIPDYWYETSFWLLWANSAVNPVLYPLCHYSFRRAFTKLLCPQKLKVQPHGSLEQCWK

Rattus norvegicus [8] = assay: Free Cmax in rat at 2 mg/kg, po; format: ADME, organism-based; set-up: dose 2 mg/kg, route oral; details: in vivo
[9] = Solubility of the compound; format: physicochemical
[10] = Tmax in rat at 2 mg/kg, po; format: ADME, organism-based; set-up: dose 2 mg/kg, route oral; details: in vivo
Histamine H3 receptor [11] = biological target: T1, Histamine H3 receptor; assay: Displacement of [3H]-N-alpha-methylhistamine from human recombinant histamine H3 receptor expressed in HEK293 cell membrane; format: cell membranes
[12] = Dissociation constant, pKa of the compound; format: physicochemical
[13] = AUC in rat at 2 mg/kg, po; format: ADME, organism-based; set-up: dose 2 mg/kg, route oral; details: plasma
[14] = Clearance in rat at 1 mg/kg, iv administered as bolus dose; format: ADME, organism-based; set-up: dose 1 mg/kg, route intravenous; details: in vivo
Salmonella typhimurium [15] = assay: Genotoxicity in Salmonella typhimurium TA100 expressing lux gene assessed as mutagenicity by BioLum Ames test; format: toxicity, organism-based; details: salmonella enterica subsp. enterica serovar typhimurium
[16] = Volume of distribution at steady state in dog at 0.2 mg/kg, iv infusion; format: ADME, organism-based, Canis lupus familiaris; set-up: dose 0.2 mg/kg, route intravenous; details: in vivo, read-out: Vdss
[17] = biological target: Voltage-gated inwardly rectifying potassium channel KCNH2 (Homo sapiens, UniProt Q12809); assay: Binding affinity to human ERG
Voltage-gated inwardly rectifying potassium channel KCNH2, sequence (Q12809 whole entry): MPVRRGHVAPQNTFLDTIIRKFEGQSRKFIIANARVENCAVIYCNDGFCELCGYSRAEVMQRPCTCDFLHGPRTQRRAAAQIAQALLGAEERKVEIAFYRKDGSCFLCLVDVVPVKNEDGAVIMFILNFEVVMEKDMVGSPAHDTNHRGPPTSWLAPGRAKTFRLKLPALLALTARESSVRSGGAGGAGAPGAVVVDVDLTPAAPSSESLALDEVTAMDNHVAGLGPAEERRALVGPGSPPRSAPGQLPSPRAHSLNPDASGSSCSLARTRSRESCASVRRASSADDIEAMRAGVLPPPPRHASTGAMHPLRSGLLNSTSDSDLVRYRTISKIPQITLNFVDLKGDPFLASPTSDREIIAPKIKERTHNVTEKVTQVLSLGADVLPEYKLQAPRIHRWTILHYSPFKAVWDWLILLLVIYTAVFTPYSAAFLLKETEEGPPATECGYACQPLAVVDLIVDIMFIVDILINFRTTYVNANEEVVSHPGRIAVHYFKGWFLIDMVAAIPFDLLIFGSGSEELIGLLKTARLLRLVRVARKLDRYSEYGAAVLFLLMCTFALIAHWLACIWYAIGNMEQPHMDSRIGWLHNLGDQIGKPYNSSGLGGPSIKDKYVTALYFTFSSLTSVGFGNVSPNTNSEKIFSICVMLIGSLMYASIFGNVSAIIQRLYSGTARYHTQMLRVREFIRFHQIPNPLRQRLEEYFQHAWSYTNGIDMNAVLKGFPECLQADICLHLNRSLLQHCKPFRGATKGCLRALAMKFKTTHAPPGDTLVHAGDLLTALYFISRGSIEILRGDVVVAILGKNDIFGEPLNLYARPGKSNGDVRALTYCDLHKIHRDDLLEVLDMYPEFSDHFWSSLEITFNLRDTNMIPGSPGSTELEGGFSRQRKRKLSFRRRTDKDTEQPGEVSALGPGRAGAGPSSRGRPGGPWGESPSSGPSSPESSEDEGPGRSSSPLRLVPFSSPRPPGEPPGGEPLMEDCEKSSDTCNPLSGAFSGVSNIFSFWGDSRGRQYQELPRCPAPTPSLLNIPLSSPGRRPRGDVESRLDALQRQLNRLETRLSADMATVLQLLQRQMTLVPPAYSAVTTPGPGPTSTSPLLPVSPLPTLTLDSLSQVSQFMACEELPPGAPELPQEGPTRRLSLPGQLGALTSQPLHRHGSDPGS

Histamine H1 receptor = Histamine H1 receptor (Homo sapiens, UniProt P35367); assay: Binding affinity to human histamine H1 receptor
Histamine H1 receptor, sequence (P35367 whole entry): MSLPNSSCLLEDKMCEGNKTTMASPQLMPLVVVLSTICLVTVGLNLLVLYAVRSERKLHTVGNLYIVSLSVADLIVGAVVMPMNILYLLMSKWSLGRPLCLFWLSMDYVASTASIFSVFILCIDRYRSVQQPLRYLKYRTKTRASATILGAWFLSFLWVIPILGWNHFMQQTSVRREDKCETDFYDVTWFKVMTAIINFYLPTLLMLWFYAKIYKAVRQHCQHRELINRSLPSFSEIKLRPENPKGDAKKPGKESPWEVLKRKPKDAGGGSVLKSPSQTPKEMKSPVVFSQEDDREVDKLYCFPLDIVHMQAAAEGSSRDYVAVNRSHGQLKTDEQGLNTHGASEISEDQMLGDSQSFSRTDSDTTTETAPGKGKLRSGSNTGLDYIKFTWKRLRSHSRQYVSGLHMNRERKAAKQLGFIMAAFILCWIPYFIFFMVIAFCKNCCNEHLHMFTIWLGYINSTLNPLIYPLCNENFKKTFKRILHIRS

[18] = AUC in dog at 0.2 mg/kg, po; format: ADME, organism-based, Canis lupus familiaris; set-up: dose 0.2 mg/kg, route oral; details: plasma
CHO [19] = assay: Genotoxicity in CHO cells by micronucleus test in absence of metabolic activation; format: toxicity, cell-based, Cricetulus griseus; details: chinese hamster
Salmonella typhimurium [20] = assay: Genotoxicity in Salmonella typhimurium TA98 expressing lux gene assessed as mutagenicity by BioLum Ames test; format: toxicity, organism-based; details: salmonella enterica subsp. enterica serovar typhimurium
[21] = Oral bioavailability in rat; format: ADME, organism-based; details: in vivo
Histamine H3 receptor [22] = biological target: T1, Histamine H3 receptor; assay: Inhibition of human recombinant histamine H3 receptor expressed in HEK293 cells by Glosensor functional assay; format: cell-based
[23] = Volume of distribution at steady state in rat at 1 mg/kg, iv administered as bolus dose; format: ADME, organism-based; set-up: dose 1 mg/kg, route intravenous; details: in vivo, read-out: Vdss
Nucleic Acid = assay: Ratio of drug level in CSF to free drug level in plasma in iv dosed rat administered at high multiple of H3R Ki measured after 4 hrs infusion; format: ADME, organism-based; details: in vivo
[24] = Therapeutic index in EEG PKPD rat relative to CNS penetrant compound Z; format: organism-based; details: in vivo, read-out: TI
Histamine H2 receptor = Histamine H2 receptor (Homo sapiens, UniProt P25021); assay: Binding affinity to human histamine H2 receptor
Histamine H2 receptor, sequence (P25021 whole entry): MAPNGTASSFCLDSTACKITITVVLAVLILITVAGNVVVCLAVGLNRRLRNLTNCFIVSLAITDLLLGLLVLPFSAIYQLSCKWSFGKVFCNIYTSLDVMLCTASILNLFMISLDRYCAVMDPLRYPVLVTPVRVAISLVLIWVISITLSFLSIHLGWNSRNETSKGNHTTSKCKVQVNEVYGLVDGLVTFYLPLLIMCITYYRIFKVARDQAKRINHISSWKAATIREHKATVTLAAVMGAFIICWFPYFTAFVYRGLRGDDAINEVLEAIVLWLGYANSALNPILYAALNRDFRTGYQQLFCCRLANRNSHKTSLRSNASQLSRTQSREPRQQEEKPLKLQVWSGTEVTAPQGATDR

Histamine H3 receptor [25] = biological target: T1, Histamine H3 receptor; assay: Displacement of [3H]-PF-05255650 from human recombinant histamine H3 receptor expressed in HEK293 cell membrane; format: cell membranes
[26] = Distribution coefficient, log D of the compound at pH 7.4; format: physicochemical; details: octanol/water
Canis familiaris [27] = assay: Free Cmax in dog at 0.2 mg/kg, iv infusion; format: ADME, organism-based, Canis lupus familiaris; set-up: dose 0.2 mg/kg, route intravenous; details: in vivo
Rattus norvegicus [28] = assay: Free drug level in non-regulatory rat administered for 7 days; format: ADME, organism-based; details: in vivo, 168 h
[29] = Total Cmax in rat at 1 mg/kg, iv administered as bolus dose; format: ADME, organism-based; set-up: dose 1 mg/kg, route intravenous; details: in vivo
BCRP = assay: Efflux ratio of permeability from basolateral to apical side over apical to basolateral side of BCRP transfected dog RRCK cells; format: ADME, cell-based, Canis lupus familiaris, MDCKII-LE
[30] = Oral bioavailability in rat at 2 mg/kg; format: ADME, organism-based; details: in vivo
Rattus norvegicus [31] = assay: Free Cmax in rat at 1 mg/kg, iv administered as bolus dose; format: ADME, organism-based; set-up: dose 1 mg/kg, route intravenous; details: in vivo
[32] = Effective half life in dog at 0.2 mg/kg, iv infusion; format: ADME, organism-based, Canis lupus familiaris; set-up: dose 0.2 mg/kg, route intravenous; details: in vivo, read-out: t1/2eff (converted)
[33] = Apparent permeability from apical to basolateral side in dog RRCK cells; format: ADME, cell-based, Canis lupus familiaris, MDCKII-LE; details: MDCK
[34] = Ratio of free drug level in brain to plasma in rat at 8 mg/kg/day, po for 8 days; format: ADME, organism-based; set-up: route oral; details: read-out: K(p,uu,brain)
[35] = Oral bioavailability in dog at 0.2 mg/kg; format: ADME, organism-based, Canis lupus familiaris; details: in vivo
HEK293 = assay: Selectivity ratio of Ki for sigma receptor (unknown origin) to Ki for human recombinant histamine H3 receptor expressed in HEK-293 cells; format: cell-based
CHO [36] = assay: Genotoxicity in CHO cells by micronucleus test in presence of metabolic activation; format: toxicity, cell-based, Cricetulus griseus; details: chinese hamster
[37] = Total Cmax in dog at 0.2 mg/kg, iv infusion; format: ADME, organism-based, Canis lupus familiaris; set-up: dose 0.2 mg/kg, route intravenous; details: in vivo
[38] = AUC in rat at 1 mg/kg, iv administered as bolus dose; format: ADME, organism-based; set-up: dose 1 mg/kg, route intravenous; details: plasma
[39] = Induction of phospholipidosis in transformed human liver epithelial cells; format: cell-based; details: epithelial cell
Canis familiaris [40] = assay: Free Cmax in dog at 0.2 mg/kg, po; format: ADME, organism-based, Canis lupus familiaris; set-up: dose 0.2 mg/kg, route oral; details: in vivo
[41] = Toxicity in non-regulatory rat assessed as tolerability administered for 7 days; format: organism-based; details: in vivo
[42] = Total Cmax in rat at 2 mg/kg, po; format: ADME, organism-based; set-up: dose 2 mg/kg, route oral; details: in vivo
[43] = Total Cmax in dog at 0.2 mg/kg, po; format: ADME, organism-based, Canis lupus familiaris; set-up: dose 0.2 mg/kg, route oral; details: in vivo
[44] = Ratio of free drug level in brain to plasma in dog at 1.5 mg/kg/day, po for 8 days; format: ADME, organism-based, Canis lupus familiaris; set-up: route oral; details: read-out: K(p,uu,brain)
[45] = Effective half life in rat at 1 mg/kg, iv administered as bolus dose; format: ADME, organism-based; set-up: dose 1 mg/kg, route intravenous; details: in vivo, read-out: t1/2eff (converted)
[46] = biological target: Histamine H3 receptor (Cavia porcellus) (UniProt Q9JI35); assay: Inhibition of histamine H3 receptor in electrically contracted guinea pig ileum assessed as reduction of R-alpha-methyl histamine mediated relaxation; format: tissue-based
Histamine H3 receptor (Cavia porcellus), sequence (Q9JI35 whole entry): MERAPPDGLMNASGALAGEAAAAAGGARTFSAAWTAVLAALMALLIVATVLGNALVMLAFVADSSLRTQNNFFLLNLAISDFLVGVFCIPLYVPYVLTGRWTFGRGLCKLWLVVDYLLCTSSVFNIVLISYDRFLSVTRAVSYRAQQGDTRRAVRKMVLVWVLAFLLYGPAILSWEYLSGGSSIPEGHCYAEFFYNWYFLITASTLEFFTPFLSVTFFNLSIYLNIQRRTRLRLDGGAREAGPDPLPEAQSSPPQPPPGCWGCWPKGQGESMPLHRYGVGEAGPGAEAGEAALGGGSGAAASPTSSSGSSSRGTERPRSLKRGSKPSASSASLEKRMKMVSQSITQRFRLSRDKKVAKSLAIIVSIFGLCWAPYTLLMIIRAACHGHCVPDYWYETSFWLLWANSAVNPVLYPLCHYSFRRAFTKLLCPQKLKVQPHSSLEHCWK

[47] = Tmax in dog at 0.2 mg/kg, po; format: ADME, organism-based, Canis lupus familiaris; set-up: dose 0.2 mg/kg, route oral; details: in vivo
Histamine H4 receptor = Histamine H4 receptor (Homo sapiens, UniProt Q9H3N8); assay: Binding affinity to human histamine H4 receptor
Histamine H3 receptor [48] = biological target: T2, Histamine H3 receptor; assay: Displacement of [3H]-N-alpha-methylhistamine from histamine H3 receptor in rat brain; format: tissue-based
MDR1 (P-gp) = assay: Efflux ratio of permeability from basolateral to apical side over apical to basolateral side of MDR1 transfected dog MDCK cells; format: ADME, cell-based, Canis lupus familiaris
Rattus norvegicus [49] = assay: Ex vivo receptor occupancy of histamine H3 receptor in iv dosed rat brain administered at 20 times free H3R Ki in plasma measured after 6 hrs infusion; format: functional

AUC [1]: 548 ng·h/mL
Ki [2]: 3900 nM
clearance [3]: 6.1 mL/min/kg
Emax (Histamine H3 receptor [4]): 195%
Ki (Histamine H3 receptor [4]): 0.832 nM
Fa [5]: 57%
Kp uu at 6 h [6]: 0.1
Ki (Histamine H3 receptor [7]): 90.6 nM
fCmax (Rattus norvegicus [8]): 158 nM
solubility [9]: > 1000 µg/mL
Tmax [10]: 0.75 h
Ki (Histamine H3 receptor [11]): 9.6 nM
pKa [12]: 9.78
AUC [13]: 649 ng·h/mL
clearance [14]: 27 mL/min/kg
Vd [16]: 2.3 L/kg
Ki (Histamine H1 receptor): > 4000 nM
AUC [18]: 727 ng·h/mL
bioavailability [21]: 42%
Kb (Histamine H3 receptor [22]): 0.42 nM
Vd [23]: 4.1 L/kg
Ratio (Nucleic Acid): 0.06
Ki (Histamine H2 receptor): > 4000 nM
Ki (Histamine H3 receptor [25]): 1.36 nM
logD [26]: 0
fCmax (Canis familiaris [27]): 320 nM
Drug uptake(free) (Rattus norvegicus [28]): 14.051 µM
Cmax [29]: 477 ng/mL
efflux ratio (BCRP): 5.6
bioavailability [30]: 42%
fCmax (Rattus norvegicus [31]): 856 nM
half-life [32]: 4.5 h
Papp A→B [33]: 2 ×10⁻⁶ cm/s
Kp uu at 192 h [34]: 0.07
bioavailability [35]: 133%
Cmax [37]: 129 ng/mL
AUC [38]: 776 ng·h/mL
fCmax (Canis familiaris [40]): 352 nM
Cmax [42]: 89 ng/mL
Cmax [43]: 142 ng/mL
Kp uu at 192 h [44]: 0.1
half-life [45]: 1.9 h
A2 [46]: 0.96 nM
Tmax [47]: 0.9 h
Ki (Histamine H4 receptor): > 4000 nM
Ki (Histamine H3 receptor [48]): 145 nM
efflux ratio (MDR1 (P-gp)): 3.3
SMILES: CC(C)N1CCC(Oc2ccc(C3(C(N)=O)CCOCC3)cc2)CC1
Activity (Salmonella typhimurium [15]): Non-toxic
Ki [17]: > 40000 nM
Activity (CHO [19]): Non-toxic
Activity (Salmonella typhimurium [20]): Non-toxic
selectivity ratio [24]: 16
Ratio Ki (HEK293): > 400
Activity (CHO [36]): Non-toxic
NOAEL [39]: 150 µM
NOAEL at 168 h [41]: 80 mg/kg/day

Kp uu at 6 h [6]: 0.1
solubility [9]: > 1000 µg/mL
bioavailability [21]: 54%
Ratio (Nucleic Acid): 0.05
logD [26]: 1.2
efflux ratio (BCRP): 3.7
Papp A→B [33]: 11 ×10⁻⁶ cm/s
Kp uu at 192 h [34]: 0.07
efflux ratio (MDR1 (P-gp)): 4.8
SMILES: CC(C)N1CCC(Oc2ccc3c(n2)CCN(c2ccc(C(N)=O)cn2)C3)CC1
selectivity ratio [24]: 40
Occ (Rattus norvegicus [49]): 18%
